Results on four compounds are retold here after US8465783B2, “Production of potassium magnesium citrate and its applications” (Gadot Biochemical Industries Ltd., priority 2008, dated 2013).

Common to all, as to assay type: physicochemical
The nature of series [1]: Magnesium retention in soy milk on standing (Mg content in upper layer). Conditions: for Mg content: 1 liter, after addition during agitation (initial); for Mg content in upper layer: after retention of two days without agitation. The protocol: 3 g of material obtained in Example 1 were added to 1 liter of Soy milk during agitation.
3 g of material obtained in Example 2 were added to 1 liter of Soy milk during agitation.
Potassium magnesium citrate was prepared according to U.S. Pat. No. 4,985,593. 5.6 g Of the prepared material were added to 1 liter of soy milk and the samples stored refrigerated.
2.2 g of Tri magnesium citrate nona hydrate were added to 1 liter of soy milk during the agitation.
2.2 g of Tri magnesium citrate nona hydrate and 0.2 g of Kappa Carragenan were added to 1 liter of soy milk during the agitation.
2.2 g of Tri magnesium citrate nona hydrate and 2.2 g of tri potassium citrate were added to 1 liter of soy milk during the agitation.

Series [2] is described as follows: Long-term magnesium retention in UHT-treated soy milk, stored refrigerated (Mg content in upper level). The protocol: 120 g of material obtained in Example 1 were added to 40 liters of soy milk, after agitation the mixture passed the well known (in the art) UHT treatment and samples were collected and stored refrigerated.
Series [3] in a line: Magnesium retention in cow milk on standing (Mg content in upper layer). Here is the method: 3 g of material obtained in Example 1 were added to 1 liter of cow milk during agitation.

`O=C([O-])CC(O)(CC(=O)[O-])C(=O)[O-].O=C([O-])CC(O)(CC(=O)[O-])C(=O)[O-].[K+].[K+].[K+].[K+].[Mg+2]` [Potassium magnesium citrate]: the “initial concentration of Mg” value in series [1] (5.6 g per 1 liter) was 373 mg/L. In addition, the “Mg content in the upper level” value in series [1] (stored refrigerated, after 48 hours of retention) was 372 mg/L.

In the case of `O.O.O.O.O.O.O.O.O.O=C([O-])CC(O)(CC(=O)[O-])C(=O)[O-].O=C([O-])CC(O)(CC(=O)[O-])C(=O)[O-].[Mg+2].[Mg+2].[Mg+2]` [Tri magnesium citrate nona hydrate], in series [1], the Mg content was determined as 475 mg/L and the “Mg content in upper layer” value came to 307 mg/L. Further, in series [1] (two days without agitation), the “Magnesium sediment during two days” value is reported as 35 percents.

As to Magnesium Potassium Citrate [Example 1], the Mg content was determined as 445 mg/L in series [1] and 297 mg/L in series [3] (1 liter, after addition during agitation (initial)). The “Mg content in upper layer” value in series [1] was 444 mg/L; in series [3] (after retention of two days without agitation), 289 mg/L. For the same compound, the “Mg content in the upper level” value in series [2] (after 1 week) was 471 mg/L; in series [2] (after 2 weeks), 470 mg/L; in series [2] (after 3 weeks), 471 mg/L; in series [2] (after 4 weeks), 470 mg/L; in series [2] (after 5 weeks), 462 mg/L; in series [2] (after 6 weeks) it was 468 mg/L. In addition, the “Mg content in the upper level” value in series [2] (after 7 weeks) turned out to be 470 mg/L; in series [2] (after 8 weeks), 468 mg/L; in series [2] (after 9 weeks), 467 mg/L; in series [2] (after 10 weeks), 465 mg/L; in series [2] (after 11 weeks) it was 471 mg/L; in series [2] (after 12 weeks) it was 465 mg/L. Moreover, the entries for the “Mg content in the upper level” value in series [2] (after 13 weeks) and in series [2] (initial) were 466 mg/L and 468 mg/L, respectively.

For Magnesium Potassium Citrate [Example 2], in series [1], the Mg content was 547 mg/L and the “Mg content in upper layer” value worked out at 545 mg/L.
